Source: US20170298051A1, “ACTIVATOR OF ADIPONECTIN RECEPTOR” (THE UNIVERSITY OF TOKYO, priority 2013, published 2017)

T1: AdipoR1 (Mus musculus, UniProt Q91VH1)
T1 construct: C2C12 cells (ATCC; CRL-1772, medium; host or cells: differentiated C2C12
T1 sequence (Q91VH1 1-375): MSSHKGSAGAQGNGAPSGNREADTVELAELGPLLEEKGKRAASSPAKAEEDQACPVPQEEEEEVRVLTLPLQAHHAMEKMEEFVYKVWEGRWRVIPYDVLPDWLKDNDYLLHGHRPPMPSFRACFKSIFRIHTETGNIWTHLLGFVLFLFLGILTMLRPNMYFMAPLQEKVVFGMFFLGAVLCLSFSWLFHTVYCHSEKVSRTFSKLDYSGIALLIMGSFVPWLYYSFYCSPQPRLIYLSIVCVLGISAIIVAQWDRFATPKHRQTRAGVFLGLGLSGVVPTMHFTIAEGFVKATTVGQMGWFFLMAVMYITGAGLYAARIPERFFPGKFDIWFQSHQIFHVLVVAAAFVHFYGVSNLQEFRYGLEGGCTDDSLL

B1: adiponectin: antidiabetic and antiatherogenic adipokine; mouse full-length adiponectin was generated as previously described (protein, UniProt Q60994 1-247, looked up)
chain: MLLLQALLFLLILPSHAEDDVTTTEELAPALVPPPKGTCAGWMAGIPGHPGHNGTPGRDGRDGTPGEKGEKGDAGLLGPKGETGDVGMTGAEGPRGFPGTPGRKGEPGEAAYVYRSAFSVGLETRVTVPNVPIRFTKIFYNQQNHYDGSTGKFYCNIPGLYYFSYHITVYMKDVKVSLFKKDKAVLFTYDQYQEKNVDQASGSVLLHLEVGDQVWLQVYGDGDHNGLYADNVNDSTFTGFLLYHDTN
modifications: full-length
notes: antidiabetic and antiatherogenic adipokine; mouse full-length adiponectin was generated as previously described

How the values were obtained:
AdipoR1 [1] = biological target: T1, AdipoR1; assay: Measurement of AMPK phosphorylation ability (Assay 1), differentiated C2C12 cells, Western blotting; assay type: cell-based; conditions: 10 μM, 10 minutes
Experimental: The AMPK phosphorylation ability of the respective compounds according to the present invention was measured by using differentiated C2C12 cells or HEK 293T cells.
C2C12 cells (ATCC; CRL-1772, medium; DMEM, 10% FBS) were cultured in a 12- or 24-well plate until they reached 100% confluency (37° C., 5% CO2).
The medium was changed to 2.5% Horse Serum (HS) and differentiation was started. The medium (DMEM, 2.5% HS) was replaced every three days.
After starvation, a test compound listed in Table 12 (concentration: 10 μM) was added thereto, and after 10 minutes, the medium was discarded and the plate was frozen with liquid nitrogen.
To the 12- or 24-well cell plate which had been frozen was added 100 or 150 μL of Cell lysis buffer pH 7.4 (50 mM HEPES (pH 7.4), 2 mM sodium orthovanadate, 10 mM sodium pyrophosphate, 10 mM NaF, 2 mM EDTA, 2 mM EGTA, 0.1% (v/v) NP-40, 0.2 mM PMSF), and the cells were scraped off with a cell scraper, suspended and transferred into a micro centrifugal tube. And then, the cells were ultrasonically crushed (1 second×3 times) with a sonicator. Centrifugation was performed at 4° C. at 15,000 rpm for 15 minutes, and the supernatant was recovered into a new tube.
To 100 μL of the supernatant was added 25 μL of 5× sample buffer (280 mM Tris-HCl (pH 6.9), 40% glycerol, 10% (3-mercaptoethanol, 13% SDS, a small amount of bromophenol blue) and mixed together. The rest of the supernatant was used for protein quantification, and the protein concentrations were uniformed by adding 1× sample buffer depending on the concentration of each sample.
An electrophoresis chamber was filled with 1× SDS buffer (25 mM Tris-HCl, 250 mM glycine, 0.1% SDS), and the sample was applied to a well of polyacrylamide gel. Electrophoresis was performed until the bromophenol blue in the sample reached to the bottom of the gel.
A filter paper was soaked in 1× Transfer buffer sufficiently, above which the PVDF membrane and the gel after electrophoresis were stacked in this order, and thereabove a filter paper which had been soaked in 1× Transfer buffer sufficiently was further stacked, from which an air was removed and the resultant was set in semi-dry type transfer apparatus and transferred (7V, 35 minutes).
An unnecessary portion of the blotted membrane was cutoff, and the rest was immediately soaked in blocking buffer (5% skimmed milk in Rinse buffer), and shaken at room temperature at 40 rpm for 3 hours.
After blocking, the membrane was transferred into Rinse buffer, and washed at room temperature for 10 minutes while shaking. The membrane was soaked in a primary antibody solution (AMPK alpha Antibody (Cell signaling; #2532) 1/1,000 in Rinse buffer, Phospho-AMPK alpha (Thr172) (40H9) antibody (Cell signaling; #2535) 1/1,000 in Rinse buffer), and shaken at 4° C. at 40 rpm overnight.
The membrane was soaked in a secondary antibody solution (goat anti-rabbit IgG-HRP Antibody (Santa Cruz; sc-2030) 1/2,000 in Rinse buffer), and shaken at room temperature at 40 rpm for 1 hour.
After the membrane was washed for 45 minutes in the same way as after the primary antibody reaction, the membrane was soaked in a chemiluminescent reaction solution (ECL Western Blotting Detection Reagents, GE Healthcare) for about 1 minute. An excess of the reaction solution was removed, and then the membranes were arranged on a transparent film and sandwiched with it, with which an X-ray film was exposed in a darkroom (for about several seconds to 60 seconds) to develop the film.
The X-ray film was scanned to take the image, for which the band was measured by using the image analysis software “Image J” to determine the respective amounts of pAMPK and AMPK.

AdipoR1 [2] = assay: Measurement of AMPK phosphorylation ability (Assay 2), C2C12 cells with unrelated or AdipoR1 siRNA; assay type: cell-based, Mouse
Experimental: C2C12 cells (ATCC; CRL-1772, medium; DMEM, 10% Fetal Bovine Serum (FBS)) were cultured in a 12- or 24-well plate until they reached 100% confluency (37° C., 5% CO2). The medium was changed to DMEM, 2.5% Horse Serum (HS) and differentiation was started. The medium (DMEM, 2.5% HS) was replaced two days after the start of differentiation. The medium (DMEM, 2.5% HS) was further replaced two days after that.
On the next day following the replacement of the medium, first, 1 μL of Lipofectamine RNAiMAX and 50 μL of OPTI-MEM were mixed, and then 5 μM siRNA (sense siRNA sequence: […]tt (SEQ ID NO: 1)) and 50 μL of OPTI-MEM were mixed and the resultants were left to stand at room temperature for 5 minutes. And then, the 1 μL Lipofectamine RNAiMAX/50 μL OPTI-MEM and the 5 μM siRNA/50 μL OPTI-MEM were mixed, and the resultant was left to stand at room temperature for 10 minutes, which was added to the cells.
After 5 minutes, the medium (DMEM, 2.5 HS) was replaced, and after starvation on the next day, a test compound listed in Table 12 was added thereto. After 10 minutes, the medium was discarded and the plate was frozen with liquid nitrogen.
The respective amounts of pAMPK and AMPK were determined in the same way as in the above Assay 1.

[3] = system: HF diet-induced obese mice; assay: Oral glucose tolerance test and insulin tolerance in HF diet-induced obese mice; assay type: in vivo; conditions: mice, FIG. 7
Experimental: The original Adipor1^+/−/Adipor2^+/− mice (C57BL/6 and 129/Sv mixed background)^a were backcrossed with C57B1/6 mice more than seven times. All experiments in this study were conducted on male littermates.
(§1) Mice were 6-10 week of age at the time of the experiment. They were housed in cages and maintained on a 12 hr light-dark cycle.
(§2) Plasma glucose levels were determined by using a glucose B-test (Wako Pure Chemical Industries). Plasma insulin was measured with an insulin immunoassay (Shibayagi). Plasma NEFAs (Wako Pure Chemical Industries) were assayed by enzymatic methods.
(§3) The oral glucose tolerance test (OGTT) and insulin tolerance test (ITT) were conducted as previously described^a,b with slight modifications. The areas of the glucose and insulin curves were calculated by multiplying the cumulative mean height of the glucose values (1 mg/ml=1 cm) and insulin values (1 ng/ml=1 cm), respectively, by time (60 min=1 cm)^c,a. The insulin resistance index was calculated from the product of the areas of glucose and insulin×10^−2 in the glucose tolerance test. The results are expressed as the percentage of the value respect to control littermates.

Lepr−/− (db/db) mice = assay: Anti-diabetic effects in db/db mice; assay type: in vivo; conditions: intraperitoneal (IP) injection
Experimental: as §1
Male Lepr^−/− (aged 6-10 week) were purchased from Jackson Laboratory. When the mice in the same genotype received different treatments, they were randomly assigned to treatment groups.
as §2, §3

Row | Molecule | pAMPK/AMPK (%) (AdipoR1 [1]) | pAMPK/AMPK (ratio) siRNA, AdipoR1 siRNA (AdipoR1 [2]) [ratio] | pAMPK/AMPK (ratio) siRNA, unrelated siRNA (AdipoR1 [2]) [ratio] | glucose intolerance and insulin resistance [3] | plasma glucose level (Lepr−/− (db/db) mice)
1 | COCCNC(=O)c1ccc(OC2CCN(Cc3cc4ccccc4o3)CC2)c(Cl)c1 [No. 473771] | 85.03 | 2.39 | 1.67 |  | 
2 | COc1ccc(CN2CCN(C(=O)CCNC(=O)c3ccc(C(C)(C)C)cc3)CC2)cc1 [Compound 74, 4-tert-butyl-N-(3-{4-[(4-methoxyphenyl)methyl]piperazin-1-yl}-3-oxopropyl) benzamide] | 86.43 | 2.07 | 3.70 | could improve glucose intolerance as well as insulin resistance | 
3 | COc1ccccc1N1CCN(CCC(=O)Nc2ccccc2Cl)CC1 [No. 189640] | 82.40 | 1.82 | 1.85 |  | 
4 | COCCNC(=O)c1ccc(OC2CCN(Cc3cccc4nonc34)CC2)c(Cl)c1 [No. 484140] | 81.88 | 2.30 | 2.34 |  | 
5 | COCCNC(=O)c1ccc(OC2CCN(Cc3ccc(OC)cc3F)CC2)c(Cl)c1 [No. 197248] | 89.63 | 2.55 | 2.09 |  | 
6 | COc1cccc(NC(=O)c2ccc(CN3CCN(Cc4ccccc4)CC3)cc2)c1 [No. 103694] | 81.05 | 3.34 | 4.67 |  | 
7 | O=C(NCc1ccncc1)c1ccc(OC2CCN(Cc3ccoc3)CC2)cc1 [No. 196462] | 82.72 | 2.58 | 2.06 |  | 
8 | COCc1ccc(CN2CCC(Oc3ccc(C(=O)NC4CCCC4)cc3Cl)CC2)o1 [No. 195831] | 99.10 | 2.98 | 2.88 |  | 
9 | CC(C)N(Cc1cnn(C)c1)C(=O)c1ccc(OC2CCN(Cc3ccccn3)CC2)cc1 [No. 206685] | 90.15 | 2.39 | 1.76 |  | 
10 | CCOc1cccc(CN2CCC(Oc3ccc(C(=O)NCCOC)cc3Cl)CC2)c1 [No. 214617] | 91.97 | 2.78 | 2.21 |  | 
11 | COCCNC(=O)c1ccc(OC2CCN(Cc3ccc(C)s3)CC2)c(Cl)c1 [No. 197372] | 85.37 | 1.96 | 1.78 |  | 
12 | CCc1ccc(CN2CCC(Oc3ccc(C(=O)NCCOC)cc3Cl)CC2)cc1 [No. 466151] | 89.26 | 1.94 | 2.22 |  | 
13 | COc1ccc(C(=O)N2CCN(Cc3ccc(C(F)(F)F)cc3)CC2)cc1OC [No. 191294] | 89.56 | 3.54 | 3.25 |  | 
14 | C#CCN(Cc1ccco1)C(=O)c1ccc(OC2CCN(Cc3ccccn3)CC2)cc1 [No. 268949] | 86.36 | 2.82 | 3.10 |  | 
15 | B1 |  |  |  |  | decreased plasma glucose level
